In brackets after ≈: the same amount, converted by molar mass.
Key:
Type in all cases: cell-based
BCL-2 = experiment: Downregulation of anti-apoptotic protein BCL-2; conditions: compared to the control (untreated) cells
IL-6 = experiment: Downregulation of; conditions: compared to the control (untreated) cells
MMP9 = experiment: Downregulation of; conditions: compared to the control (untreated) cells
Caspase 6 = experiment: Upregulation of pro-apoptotic protein Caspase 6; conditions: compared to the control (untreated) cells
A549 = experiment: IC50 towards A549 cancer cell line; conditions: Homo sapiens
Caspase 9 = experiment: Upregulation of pro-apoptotic protein Caspase 9; conditions: compared to the control (untreated) cells
FaDu = experiment: IC50 towards FaDu cancer cell line; conditions: Homo sapiens
Caspase 8 = experiment: Upregulation of pro-apoptotic protein Caspase 8; conditions: compared to the control (untreated) cells
HeLa = experiment: IC50 towards HeLa cancer cell line; conditions: Homo sapiens
Caspase 3 = experiment: Upregulation of pro-apoptotic protein Caspase 3; conditions: compared to the control (untreated) cells
p53 = experiment: Upregulation of pro-apoptotic protein p53; conditions: compared to the control (untreated) cells
COX-2 = experiment: Downregulation of pro-inflammatory marker COX-2; conditions: compared to the control (untreated) cells
MDA-MB-468 = experiment: IC50 towards MDA-MB-468 cancer cell line; conditions: Homo sapiens
BAX = experiment: Upregulation of pro-apoptotic protein BAX; conditions: compared to the control (untreated) cells
PC3 = experiment: IC50 towards PC3 cancer cell line; conditions: Homo sapiens, PC-3
MMP2 = experiment: Downregulation of; conditions: compared to the control (untreated) cells
IL-1β = experiment: Downregulation of pro-inflammatory marker IL-1β; conditions: compared to the control (untreated) cells

Structure (SMILES) | downregulation of BCL-2 (BCL-2) [fold changes] | downregulation of IL-6 (IL-6) [fold changes] | downregulation of MMP9 (MMP9) [fold changes] | upregulation of Caspase 6 (Caspase 6) [fold changes] | IC50 (A549) [µg/mL] | upregulation of Caspase 9 (Caspase 9) [fold changes] | IC50 (FaDu) [µg/mL] | upregulation of Caspase 8 (Caspase 8) [fold changes] | IC50 (HeLa) [µg/mL] | upregulation of Caspase 3 (Caspase 3) [fold changes] | upregulation of p53 (p53) [fold changes] | downregulation of COX-2 (COX-2) [fold changes] | IC50 (MDA-MB-468) [µg/mL] | upregulation of BAX (BAX) [fold changes] | IC50 (PC3) [µg/mL] | downregulation of MMP2 (MMP2) [fold changes] | downregulation of IL-1β (IL-1β) [fold changes]
CCOc1ccc(Oc2ccc(/C=N/c3ccc([Se][Se]c4ccc(/N=C/c5ccc(Oc6ccc(OCC)cc6)cc5)cc4)cc3)cc2)cc1 [YS9, N,N′-(Diselanediylbis(4,1-phenylene))bis(1-(4-(4-ethoxyphenoxy)phenyl)methanimine)] | 0.35 | 0.48 | 0.48 | 10.37 | 4.4 (≈ 5.56 µM) | 2.41 | 4.73 (≈ 5.98 µM) | 3.16 | 4 (≈ 5.06 µM) | 5.82 | 3.50 | 0.37 | 6 (≈ 7.59 µM) | 1.95 | 12 (≈ 15.1 µM) | 0.31 | 0.46
COc1cccc2c1C(=O)c1c(O)c3c(c(O)c1C2=O)C[C@@](O)(C(=O)CO)C[C@@H]3O[C@H]1C[C@H](N)[C@H](O)[C@H](C)O1 [doxorubicin, reference compound] | – | – | – | – | – | – | 13.1 (≈ 24.1 µM) | – | – | – | – | – | – | – | 5.83 (≈ 10.7 µM) | – | –
